Data as given in patent publication EP4410284A1, “COMPOUND AND METHOD FOR THE TREATMENT OF ZELLWEGER SPECTRUM DISORDER” (Apteeus, priority 2023, dated 2024).
Like-named read-outs stand apart in the source and are kept apart here.

Tests used:
GM16513 cells [1] = assay: Catalase import immunofluorescence, high-content screening (% importing cells); type: cell-based, human; settings: GM16513 cells, 3 days; for EC50: read-out: EC50; for Emax: read-out: Max Efficacy (% Importing cells)
GM16513 cells [2] = type: cell-based; settings: 3 days, PI positive cells (dead cells)
PEX405 cells [3] = assay: Catalase import immunofluorescence, high-content screening (% importing cells); type: cell-based, human; settings: for Concentration (lower dose leading to the maximum effect) / Importing cells (%): PEX405 (PEX1); for Importing cells (%): at the lower dose leading to the maximum effect (see E12); for % Importing cells: PEX405 cells, 3 days
PEX405 cells [4] = type: cell-based; settings: 3 days, PI positive cells (dead cells)
GM 16865 = assay: Catalase import immunofluorescence (% importing cells); type: cell-based, human; settings: GM 16865 (PEX26); for Importing cells (%): at the lower dose leading to the maximum effect (see E22)
Method: (§1) Primary fibroblasts were seeded at 500-700 cells per well in 384-well plates and grown at 37°C overnight. Cells were treated with test compounds or 0.1% DMSO for 3 days. After 3 days and a wash with PBS, cells were fixed with 4% paraformaldehyde (Electron Microscopy Sciences) in PBS for 20 minutes. After 3 washes with PBS, the cells were permeabilized and blocked with 0.3% Triton X-100, 1% BSA in PBS for 30 minutes at room temperature followed by 3 washes with 1% BSA in PBS. The cells were incubated with a rabbit Catalase polyclonal antibody (#12980 Cell signaling) overnight at 4°C. Following 3 washes with PBS containing 0.1% Tween-20, the cells were incubated for 1 h at room temperature with a conjugated goat anti-rabbit secondary antibody Alexa Fluor 647 (Ab150083-Abcam). The cells were then washed 3 times with PBS and Hoechst 33342 (H3570-ThermoFisher Scientific) + HCS Cellmask Blue (H32720 - ThermoFisher Scientific) staining was performed at 0.1 µg/ml and 0.4 µg/mL respectively for 30 minutes at room temperature. The cells were finally washed 3 times with PBS and fluorescent images were acquired using the INCell Analyzer 6000 imaging platform (GE Healthcare Life Sciences).
(§2) Images analysis was done using Columbus analysis software (PerkinElmer). DAPI channel was used to find nuclei (Hoechst 33342) and cytoplasm (HCS CellMask Blue) and border objects were removed. Cy5 channel (AlexaFluor 647) was used to find spots corresponding to peroxisomes which correctly import catalase. Cells were classified as importing or non-importing cells using a linear classifier method after training with images of wells containing Healthy cells and PEX1 deficient cells. The number of importing or non-importing cells was calculated. Finally, results were expressed as % of importing cells.
(§3) Among the HDAC inhibitors of example 2, 4 were tested on other cells which are PEX1, PEX6 or PEX26 deficient.

GM 17398 = assay: as above; type: cell-based, human; settings: GM 17398 (PEX26 deficient); for Importing cells (%): at the lower dose leading to the maximum effect (see E24)
Method: as §1, §2, §3

GM11335 = assay: as above; type: cell-based, human; settings: GM11335 (PEX26); for Importing cells (%): at the lower dose leading to the maximum effect (see E20)
Method: as §1, §2, §3

PEX304 = assay: as above; type: cell-based, human; settings: PEX304 (PEX1); for Importing cells (%): at the lower dose leading to the maximum effect (see E14)
Method: as §1, §2, §3

PEX506 = assay: as above; type: cell-based, human; settings: PEX506 (PEX6); for Importing cells (%): at the lower dose leading to the maximum effect (see E16)
Method: as §1, §2, §3

PEX607 = assay: as above; type: cell-based, human; settings: PEX607 (PEX6); for Importing cells (%): at the lower dose leading to the maximum effect (see E18)
Method: as §1, §2, §3

[5] = Homo sapiens, 72 h, dose response with 6 concentrations
[6] = dose response with 6 concentrations

Row | % PI+ cells (GM16513 cells [2]; 1.3 µM) | % PI+ cells (GM16513 cells [2]; 10 µM) | % PI+ cells (PEX405 cells [4]; 1.3 µM) | % PI+ cells (PEX405 cells [4]; 10 µM) | Compound | % Importing cells (GM16513 cells [1]; 1.3 µM) | % Importing cells (GM16513 cells [1]; 10 µM) | % Importing cells (PEX405 cells [3]; 1.3 µM) | % Importing cells (PEX405 cells [3]; 10 µM) | also measured
1 | 2% | 2% | 1% | 23% | O=C(CCCCCCC(=O)Nc1ccc(CN[C@H](C(=O)OC2CCCC2)c2ccccc2)cc1)NO [Tefinostat] | 33% | 91% | 24% | 24% | Max Efficacy (% Importing cells) (GM16513 cells [1]; [6]): 97%; EC50 (GM16513 cells [1]; [6]): 4000 nM
2 |  | 4% |  | 4% | O=C(CCCCCCC(=O)Nc1ccc([C@H]2O[C@@H](CSc3nc(-c4ccccc4)c(-c4ccccc4)o3)C[C@@H](c3ccc(CO)cc3)O2)cc1)NO [Tubacin] |  | 39% |  | 5% | 
3 | 2% | 1% | 1% | 1% | CN1CCc2c(c3ccccc3n2Cc2ccc(C(=O)NO)cc2)C1.Cl [Tubastatin A (Hydrochloride), Tubastatin A] | 12% | 37% | 3% | 6% | 
4 | 1% | 1% | 1% | 1% | CN1CCc2c(c3ccccc3n2Cc2ccc(C(=O)NO)cc2)C1 [Tubastatin A] | 26% | 32% | 5% | 6% | 
5 | 1% | 4% | 0% | 2% | Nc1cc(F)ccc1NC(=O)c1ccc(CNC(=O)/C=C/c2cccnc2)cc1 [Tucidinostat] | 43% | 64% | 14% | 28% | EC50 (GM16513 cells [1]; [5]): 1500 nM; Emax (GM16513 cells [1]; [5]): 70%
6 | 1% | 1% | 0% | 1% | CCCCNNC(=O)c1ccc(Br)cc1 [UF010] | 12% | 16% | 3% | 2% | 
7 | 2% | 9% | 1% | 9% | O=C(CCCCCCC(=O)Nc1ccccc1)NO [Vorinostat] | 35% | 96% | 13% | 16% | Emax (GM16513 cells [1]; [5]): 90%; Concentration (lower dose leading to the maximum effect) (PEX405 cells [3]): 10 µM; Importing cells (%) (PEX405 cells [3]): 16%; Concentration (lower dose leading to the maximum effect) (GM 16865): 3 µM; Importing cells (%) (GM 16865): 27%; Concentration (lower dose leading to the maximum effect) (GM 17398): 30 µM; Importing cells (%) (GM 17398): 2%; Concentration (lower dose leading to the maximum effect) (GM11335): 3 µM; Importing cells (%) (GM11335): 25%; Concentration (lower dose leading to the maximum effect) (PEX304): 3 µM; Importing cells (%) (PEX304): 8%; Concentration (lower dose leading to the maximum effect) (PEX506): 0.33 µM; Importing cells (%) (PEX506): 57%; Concentration (lower dose leading to the maximum effect) (PEX607): 3 µM; Importing cells (%) (PEX607): 48%

The remaining lines, values behind:

Row | Compound | % PI+ cells (GM16513 cells [2]; 1.3 µM) | % PI+ cells (GM16513 cells [2]; 10 µM) | % PI+ cells (PEX405 cells [4]; 1.3 µM) | % PI+ cells (PEX405 cells [4]; 10 µM) | % Importing cells (GM16513 cells [1]; 1.3 µM) | % Importing cells (GM16513 cells [1]; 10 µM) | % Importing cells (PEX405 cells [3]; 1.3 µM) | % Importing cells (PEX405 cells [3]; 10 µM) | also measured
8 | O=C(CCCCCCNC(=O)c1cnc(N(c2ccccc2)c2ccccc2)nc1)NO [Ricolinostat] | 2% | 5% | 1% | 1% | 30% | 89% | 4% | 35% | EC50 (GM16513 cells [1]; [5]): 2760 nM; Emax (GM16513 cells [1]; [5]): 96%; Concentration (lower dose leading to the maximum effect) (PEX405 cells [3]): 10 µM; Importing cells (%) (PEX405 cells [3]): 27%; Concentration (lower dose leading to the maximum effect) (GM 16865): 10 µM; Importing cells (%) (GM 16865): 20%; Concentration (lower dose leading to the maximum effect) (GM 17398): 30 µM; Importing cells (%) (GM 17398): 0%; Concentration (lower dose leading to the maximum effect) (GM11335): 10 µM; Importing cells (%) (GM11335): 18%; Concentration (lower dose leading to the maximum effect) (PEX304): 10 µM; Importing cells (%) (PEX304): 5%; Concentration (lower dose leading to the maximum effect) (PEX506): 0.33 µM; Importing cells (%) (PEX506): 55%; Concentration (lower dose leading to the maximum effect) (PEX607): 3 µM; Importing cells (%) (PEX607): 40%
9 | CC(C)(CNC(=O)c1cccc(-c2noc(C(F)(F)F)n2)c1)c1coc(-c2ccccc2)n1 [TMP195] | 1% | 1% | 1% | 1% | 13% | 8% | 2% | 1% | 
10 | O=C(NCC1(c2nc(-c3ccccc3)cs2)CCOCC1)c1cccc(-c2noc(C(F)(F)F)n2)c1 [TMP269] | 1% | 1% | 0% | 1% | 11% | 7% | 3% | 3% | 
11 | CC(=O)Nc1ccc(C(=O)Nc2ccccc2N)cc1 [Tacedinaline] | 1% | 2% | 1% | 1% | 15% | 18% | 2% | 4% | 
12 | COc1cccc2c1c(O)c(C(=O)N(C)c1ccc(C(F)(F)F)cc1)c(=O)n2C [Tasquinimod] | 1% | 1% | 0% | 0% | 23% | 22% | 7% | 4% | 
13 | CC(/C=C/C(=O)NO)=C\[C@@H](C)C(=O)c1ccc(N(C)C)cc1 [Trichostatin A] | 18% | 30% | 24% | 49% | 90% | 76% | 28% | 0% | 
14 | ACY-1083 | 2% | 1% | 1% | 1% | 17% | 42% | 5% | 4% | 
15 | HDACs/mTOR Inhibitor 1 | 14% | 24% | 8% | 40% | 77% | 96% | 9% | 33% | 
